Assay results published in US10351501B2, “Gem difluorocompounds as depigmenting or lightening agents” (TFCHEM, priority 2015, dated 2019).
pIC50: −log10 of the molar value. Where two headings read alike, the source gives them in different places.

Assays:
[1] = biological target: T1, human recombinant tyrosinase (Homo sapiens, UniProt P14679); test: Inhibition of human tyrosinase in tubo (L-DOPA substrate, OD at 477 nm), IC50; type: biochemical
T1 sequence (P14679 19-529): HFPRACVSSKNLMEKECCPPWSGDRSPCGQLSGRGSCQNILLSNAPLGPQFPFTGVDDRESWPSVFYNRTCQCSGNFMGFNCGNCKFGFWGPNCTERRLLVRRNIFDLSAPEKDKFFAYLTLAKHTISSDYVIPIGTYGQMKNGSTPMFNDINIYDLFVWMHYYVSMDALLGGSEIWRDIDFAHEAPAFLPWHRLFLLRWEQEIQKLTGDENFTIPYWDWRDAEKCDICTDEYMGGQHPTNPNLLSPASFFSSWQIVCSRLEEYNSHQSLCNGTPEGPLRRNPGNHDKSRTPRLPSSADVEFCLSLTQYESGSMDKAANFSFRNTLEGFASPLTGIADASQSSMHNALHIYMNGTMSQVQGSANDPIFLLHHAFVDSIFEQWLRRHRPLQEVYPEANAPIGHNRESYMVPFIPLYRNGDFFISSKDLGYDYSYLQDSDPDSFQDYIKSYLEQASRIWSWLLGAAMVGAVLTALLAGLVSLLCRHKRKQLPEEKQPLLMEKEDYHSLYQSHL
Protocol: Substrate solution: L-DOPA (1 mg/mL) Solution B (L-DOPA 20 mg/Purified water up to 20 mL)
Preparation of Test Solutions (for IC50 Test—Examples for Deoxyarbutin)
Inhibitors solutions deoxyarbutin (1 mg/mL): Deoxyarbutin 20 mg in purified water up to 20 mL
This assay used a 96-well plate. Test solutions and controls were made several times.
The results were calculated from the OD measured at time point 20 min.
The determination of half maximal inhibitory concentration (IC50) was performed using the following formula.

[2] = In vitro human skin absorption, Franz diffusion cell: quantification in skin fractions (epidermis, dermis); type: in vitro ADME; settings: emulsion 0.1 mg/mL, 200 μL, T24 h
Text: The aim of this study was to evaluate the absorption of compound 11 applied to excised human skin.
In vitro method using a Franz diffusion cell allows measuring the diffusion of chemicals into and across skin.
The tested compound is applied to the surface of a human skin explant separating the two chambers of a Franz diffusion cell. The compound remains on the skin for a specified time under specified conditions. The receptor fluid is sampled at time points throughout the experiment and analyzed for the tested compound. The skin may also be fractioned for separate analysis in epidermis or dermis layers.
The transcutaneous absorption was measured on human skin collected from the abdominoplasty of a single donor. […]
The tested compounds were quantified, at T0 h and T24 h in the receptor solution bathing the inner surface of the skin (determination of flux), or at T24 h in the fractionated skin extracts (epidermis or dermis).
To prepare the extracts, the skin explant is firstly divided in dermis and epidermis layers, then 500 μL of methanol were added on each piece of skin and incubated in an ultrasonic bath for 4 hours. […] Secondly the quantification of compounds by LC-MS/MS method was realized on 100 μl of the previous preparation added with 1000 μl of ultrapure water and 10 μl of an internal standard […]
The skin extracts were prepared at T24 h and the quantification of compound 11 was performed. […]

[3] = Antioxidant activity by the spectrophotometric method of the free radical DPPH•
Text: The aim of the study was to evaluate the antioxidant activity of compound 11 by the spectrophotometric method of the free radical DPPH• (2,2-diphenyl-1-picrylhydrazyl). Indeed, antioxidants react with DPPH^• (purple), a stable free radical which is reduced to DPPH-H (yellow), and in consequence, the absorbance is decreased from the DPPH^• radical to the DPPH-H form. The degree of discoloration indicates the scavenging potential of the antioxidant compounds in terms of hydrogen donating ability (Popovici et al. Revue de génie industriel 2009, 4, 25-39).
The tested compounds were: Trolox ((±)-6-hydroxy-2,5,7,8-tetramethylchromane-2-carboxylic acid, Sigma Aldrich), as reference, and compound 11.
A stock solution of DPPH• was prepared at 200 μmol/mL in methanol and diluted in methanol in order to have a final concentration of around 150 μmol/mL to obtain a DO close to 0.9 in a plate of 96 wells. The antioxidant stock solutions were prepared at 1 mg/mL in methanol and the tested solutions were prepared from these antioxidant stock solutions as described in Table 7 below.
50 μL of each solution of antioxidant was added to the wells. Then, 200 μL of DPPH^• was added to each well.
The blank was prepared with only 250 μl of methanol and the negative control was prepared with 200 μL DPPH• and 50 μL of methanol.
The analysis was started immediately after the addition of DPPH• lasting for 2 hours (readings every 20 seconds). The absorbance was read at 515 nm. Each experiment was performed three times and had shown that the absorbance decreases while the concentration of antioxidant increased.
The activity of DPPH• is a percentage calculated as the ratio of A/An×100%.
The EC50 is expressed as a molar ratio of antioxidant (compound 11)/DPPH• (Popovici et al. Revue de génie industriel 2009, 4, 25-39). The EC50 was determined from the graph representing the percentage of DPPH• in function of the above mentioned molar ratio (moles of compound 11/moles of DPPH•).
The antioxidant activity of compound 11 was compared to that of Trolox used as a reference (considered as 100%).

IC50 ([1]; Tyrosinase Concentration 300 U/mL, mean of 4 tests, read-out: Calculated IC50 Mean (converted)): 35.1 µM | pIC50 ([1]; Tyrosinase Concentration 300 U/mL, read-out: IC50): 4.46 | IC50 ([1]; Tyrosinase Concentration 300 U/mL, time 20 min, read-out: Calculated IC50 Test #1 (converted)): 35.1 µM | IC50 ([1]; Tyrosinase Concentration 300 U/mL, time 20 min, read-out: Calculated IC50 Test #2 (converted)): 35.1 µM | IC50 ([1]; Tyrosinase Concentration 300 U/mL, time 20 min, read-out: Calculated IC50 Test #3 (converted)): 35.1 µM | IC50 ([1]; Tyrosinase Concentration 300 U/mL, time 20 min, read-out: Calculated IC50 Test #4 (converted)): 35.1 µM | inhibits the human recombinant tyrosinase, times more than the Deoxyarbutin ([1]; comparison of IC50): 7-8 times | Quantity in skin extract ([2]; DERMIS): 5.1 μg/g of tissue | Quantity in skin extract ([2]; EPIDERMIS): 22.3 μg/g of tissue | EC50 (Ratio antioxidant/DPPH•) Mean ([3]; molar ratio antioxidant/DPPH•, absorbance at T = 30 min): 0.772
Structure (SMILES): Oc1ccc(OC2CCCCC2(F)F)cc1 (racemic) [Compound 11]
A at 515 nm (T = 30 min) ([3]; Solution 1 (0.05 mg/mL in methanol)): 0.505 | A at 515 nm (T = 30 min) ([3]; Solution 2 (0.10 mg/mL in methanol)): 0.373 | A at 515 nm (T = 30 min) ([3]; Solution 3 (0.15 mg/mL in methanol)): 0.234 | A at 515 nm (T = 30 min) ([3]; Solution 4 (0.2 mg/mL in methanol)): 0.233 | antioxidant (free radical scavenger) efficacy compared to that of Trolox ([3]; Trolox considered as 100%): 31.1%
